Measurements reported in patent US3984432A, “Color photographic recording material” (priority 1973, dated 1976).

Test: Absorption maximum after colour development in a photographic silver halide layer according to Use Example I
Format: physicochemical
Conditions: not given
Procedure: The compounds of the formulae which follow are prepared according to methods which are in themselves known, from the corresponding 4-equivalentcoupling agents (the corresponding compounds with hydrogen in the position marked with *, in place of the substituents drawn). With regard to methods of manufacture, compare DT-OS or DT-AS 1,236,332, 2,043,271, 1,547,672 or 1,187,477. Next to the formula, the absorption maximum in nm is specified in each case (see footnote to Table I). ##SPC8##
*)After colour development of the coupling agents in a photographic silve
halide layer according to Use Example I
0.3 mmol of coupling agent of the formula (215) is dissolved in 2.0 ml of tricresyl phosphate/methylene chloride (3:7). The methylene chloride is evaporated off, 6.0 ml of an 8% strength aqueous solution of sodium isopropylnaphthalene-sulphonate, 20.0 ml of 6% strength gelatine solution and 3.4 ml of water are added and the mixture is adjusted to pH 6.5 and emulsified for 5 minutes by means of an ultrasonic apparatus with an output of 100 watt.
5.0 of coupling agent emulsion freshly treated with ultrasonics, 3.3 ml of silver bromide emulsion of pH 6.5, containing 1.4% of silver and 6.0% of gelatine, 2.0 ml of 1% strength aqueous solution of the hardener of the formula [formula] and 1.7 ml of water are mixed with one another and cast at 40°C on a substrated glass plate of size 13 cm × 18 cm. After solidifying at 10° C, the plate is dried in a drying cabinet with circulating air at 32° C.
A strip cut to 4.0 cm × 6.5 cm is exposed to 500 Lux/cm^2 under a step wedge for 2 seconds and is subsequently treated at 24° C as follows: […]

Row | Compound | Abs.max. (single maximum) [nm]
1 | CCOP(=O)(CCCOc1cccc(C(=O)Nc2cccc(C(=O)CC(=O)Nc3cc(C)ccc3OC)c2)c1)OCC [(112)] | 440
2 | CCOP(=O)(CCCc1ccc(NC(=O)CC(=O)C(C)(C)C)cc1)OCC [(103)] | 429
3 | CCCCOP(=O)(CCCOc1cc(OCCCP(=O)(OCCCC)OCCCC)cc(C(=O)Nc2cccc(NC(=O)CC(=O)C(C)(C)C)c2)c1)OCCCC [(115)] | 435
4 | CCOP(=O)(CCCN(C)c1cccc(NC(=O)CC(=O)c2ccccc2)c1)OCC [(104)] | 435
5 | CCOP(=O)(OCC)C(C)(C)NC(=O)c1cccc(NC(=O)c2cccc(NC(=O)CC(=O)c3ccccc3)c2)c1 [(107)] | 444
6 | CCCCOP(=O)(CCCOc1cc(OCCCP(=O)(OCCCC)OCCCC)cc(C(=O)Nc2ccc(NC(=O)CC(=O)C(C)(C)C)cc2)c1)OCCCC [(114)] | 431
7 | CCOP(=O)(OCC)C(C)(C)NC(=O)c1cc(NC(=O)CC(=O)c2ccccc2)cc(C(=O)NC(C)(C)P(=O)(OCC)OCC)c1 [(111)] | 440
8 | CCCCC(CC)COP(=O)(CCCOc1cccc(NC(=O)CC(=O)c2ccccc2)c1)OCC(CC)CCCC (stereo not drawn) [(122)] | 436
9 | CCCCOP(=O)(CCCOc1cccc(NC(=O)CC(=O)c2ccccc2)c1)OCCCC [(123)] | 436
10 | CCCCOP(=O)(CCCOc1cccc(NC(=O)c2ccc3ccccc3c2O)c1)OCCCC [(602)] | 706
11 | CC(C)CCOP(=O)(CCCc1ccc(NC(=O)CC(=O)c2ccc(Cl)cc2)cc1)OCCC(C)C [(132)] | 438
12 | CCCCOP(=O)(Cc1ccc(CP(=O)(OCCCC)OCCCC)c(NC(=O)c2ccc(OC)c(NC(=O)CC(=O)c3ccccc3OCC)c2)c1)OCCCC [(137)] | 425
13 | CCCCC(CC)COP(=O)(CCNC(=O)c1ccc(Cl)c(NC(=O)CC(=O)c2ccc(OC)cc2)c1)OCC(CC)CCCC (stereo not drawn) [(134)] | 447
14 | CCCCOP(=O)(CC(=O)Nc1cccc(NC(=O)CC(=O)C(C)(C)C)c1)OCCCC [(105)] | 436
15 | CC(C)OP(=O)(OC(C)C)C1(C)CC(NC(=O)c2ccc(Cl)c(NC(=O)CC(=O)c3ccc(C(C)(C)C)cc3)c2)CC(C)(C)C1 (stereo not drawn) [(140)] | 439
16 | CCOP(=O)(CCCOc1cccc(NC(=O)c2ccc3ccccc3c2O)c1)OCC [(601)] | 704

Same assay, conditions: pyrazolone coupling agents

Row | Compound | Abs.max., first of two maxima (subsidiary maximum) [nm] | Abs.max., second of two maxima (absorption maximum) [nm]
17 | CCOP(=O)(CCCCCOc1cc(OCCCCCP(=O)(OCC)OCC)cc(C(=O)Nc2cccc(C(=O)NC3=NN(c4ccccc4)C(=O)C3)c2)c1)OCC [(226)] | 439 | 534
18 | CCCCOP(=O)(CCCOc1cccc(C(=O)NC2=NN(c3c(Cl)cc(Cl)cc3Cl)C(=O)C2)c1)OCCCC [(237)] | 432 | 536
19 | CCOP(=O)(CCCOc1ccc(C(=O)NC2=NN(c3c(Cl)cc(Cl)cc3Cl)C(=O)C2)cc1)OCC [(204)] | 434 | 534
20 | CC(C)OP(=O)(CCCOc1cc(OCCCP(=O)(OC(C)C)OC(C)C)cc(C(=O)Nc2cccc(C(=O)NC3=NN(c4c(Cl)cc(Cl)cc4Cl)C(=O)C3)c2)c1)OC(C)C [(240)] | 434 | 544
21 | CC(C)OP(=O)(CCCCCOc1cccc(C(=O)Nc2cccc(C(=O)NC3=NN(c4ccccc4)C(=O)C3)c2)c1)OC(C)C [(246)] | 440 | 532
22 | CCCCOP(=O)(CCCOc1cc(OCCCP(=O)(OCCCC)OCCCC)cc(C(=O)Nc2cccc(NC3=NN(c4ccc(S(C)(=O)=O)cc4)C(=O)C3)c2)c1)OCCCC [(430)] | 430 | 540
23 | CCCCOP(=O)(CCCOc1cc(OCCCP(=O)(OCCCC)OCCCC)cc(C(=O)NC2=NN(c3c(Cl)cc(Cl)cc3Cl)C(=O)C2)c1)OCCCC [(221)] | 436 | 538
24 | CC(C)OP(=O)(CCCOc1cccc(C(=O)Nc2cccc(C(=O)NC3=NN(c4c(Cl)cc(Cl)cc4Cl)C(=O)C3)c2)c1)OC(C)C [(232)] | 434 | 541
25 | CCCCOP(=O)(CCCOc1cccc(C(=O)Nc2cccc(NC3=NN(c4ccccc4)C(=O)C3)c2)c1)OCCCC [(418)] | 430 | 530
26 | CCCCOP(=O)(CCCOc1cccc(C(=O)Nc2ccc(C(=O)NC3=NN(c4c(Cl)cc(Cl)cc4Cl)C(=O)C3)cc2)c1)OCCCC [(211)] | 434 | 543
27 | CCCCC(CC)COP(=O)(CCCOc1cccc(C(=O)Nc2cccc(C(=O)NC3=NN(c4c(C)cc(OC)cc4Cl)C(=O)C3)c2)c1)OCC(CC)CCCC (stereo not drawn) [(264)] | 440 | 536
28 | CCOP(=O)(CCCCCOc1cc(OCCCCCP(=O)(OCC)OCC)cc(C(=O)NC2=NN(c3c(Cl)cc(Cl)cc3Cl)C(=O)C2)c1)OCC [(214)] | 432 | 540
29 | CCOP(=O)(CCCOc1cccc(C(=O)Nc2ccc(NC3=NN(c4ccccc4)C(=O)C3)cc2)c1)OCC [(416)] | 426 | 528
30 | CC(C)OP(=O)(CCCOc1cccc(C(=O)NC2=NN(c3c(Cl)cc(Cl)cc3Cl)C(=O)C2)c1)OC(C)C [(217)] | 435 | 538
31 | CCOP(=O)(CCCOc1cccc(C(=O)Nc2cccc(NC3=NN(c4c(Cl)cc(Cl)cc4Cl)C(=O)C3)c2)c1)OCC [(415)] | 426 | 532
32 | CCOP(=O)(CCCOc1cccc(C(=O)Nc2cccc(C(=O)NC3=NN(c4ccccc4)C(=O)C3)c2)c1)OCC [(223)] | 440 | 534
33 | CCCCC(CC)COP(=O)(CCCOc1ccc(C(=O)Nc2cccc(C(=O)NC3=NN(c4c(Cl)cc(Cl)cc4Cl)C(=O)C3)c2)c(OCCCP(=O)(OCC(CC)CCCC)OCC(CC)CCCC)c1)OCC(CC)CCCC (stereo not drawn) [(251)] | 436 | 540
34 | CCOP(=O)(CCCOc1cc(OCCCP(=O)(OCC)OCC)cc(C(=O)Nc2cccc(C(=O)NC3=NN(c4c(Cl)cc(Cl)cc4Cl)C(=O)C3)c2)c1)OCC [(216)] | 432 | 546
35 | CC(C)OP(=O)(CCCOc1cccc(C(=O)Nc2ccc(C(=O)NC3=NN(c4c(Cl)cc(Cl)cc4Cl)C(=O)C3)cc2)c1)OC(C)C [(210)] | 434 | 543
36 | CC(C)OP(=O)(CCCOc1cc(OCCCP(=O)(OC(C)C)OC(C)C)cc(C(=O)Nc2cccc(C(=O)NC3=NN(c4ccccc4)C(=O)C3)c2)c1)OC(C)C [(238)] | 440 | 530
37 | CCCCOP(=O)(CCCOc1cccc(NC2=NN(c3ccccc3)C(=O)C2)c1)OCCCC [(412)] | 430 | 528
38 | CC(C)OP(=O)(CCCCCOc1cccc(C(=O)Nc2cccc(C(=O)NC3=NN(c4c(Cl)cc(Cl)cc4Cl)C(=O)C3)c2)c1)OC(C)C [(245)] | 434 | 542
39 | CCOP(=O)(CCCOc1ccc(NC2=NN(c3cccc(Cl)c3)C(=O)C2)cc1)OCC [(406)] | 425 | 530
40 | CCCCOP(=O)(CCCOc1cc(OCCCP(=O)(OCCCC)OCCCC)cc(C(=O)Nc2cccc(NC(=O)NC3=NN(c4c(Cl)cc(Cl)cc4Cl)C(=O)C3)c2)c1)OCCCC [(273)] | 430 | 547
41 | CCOP(=O)(CCCOc1cccc(NC2=NN(c3c(Cl)cc(Cl)cc3Cl)C(=O)C2)c1)OCC [(403)] | 424 | 526
42 | CCOP(=O)(CCCOc1cccc(C(=O)Nc2c(C)cc(C)c(N3N=C(Nc4ccc(Cl)cc4)CC3=O)c2C)c1)OCC [(425)] | 430 | 530
43 | CCOP(=O)(CCCc1ccc(NC2=NN(c3c(Cl)cc(Cl)cc3Cl)C(=O)C2)cc1)OCC [(408)] | 426 | 530
44 | CCCCOP(=O)(CCCOc1cc(OCCCP(=O)(OCCCC)OCCCC)cc(C(=O)Nc2cccc(C(=O)NC3=NN(c4c(Cl)cc(Cl)cc4OC)C(=O)C3)c2)c1)OCCCC [(265)] | 436 | 537
